Measurements from US10532068B2, “Dual molecular delivery of oligonucleotides and peptide containing conjugates” (Merck Sharp & Dohme Corp., priority 2013, dated 2020).
Strand notation (5' to 3'): a small letter for the sugar, then the base; units joined by * are phosphorothioate-linked, units joined directly phosphodiester-linked; [ ] holds rarer units or linkages, { } end groups; capitals alone tell only the bases. Where no end group is shown, it is not given here. [ ]: non-standard residue; d: D form. {NH2C6-invAb} = cap: inverted abasic residue carrying an aminohexyl phosphate (attachment handle); [invAb] = inverted abasic unit; S‑S‑TGN = not defined here; TGN = not defined here; m = 2'-O-methyl; f = 2'-fluoro

Tests used:
[1] = siRNA metabolic stability (FIG. 6 legend); conditions: order siRNA-I>siRNA-V>siRNA-VI
[2] = test system: CTNNB1; assay: In vivo evaluation in mice: liver mRNA knockdown measurement (TaqMan qPCR); parameters: species or system CD-1 mice; conditions: Table 6, mice
Description: (§1) Female CD-1 mice (Charles River) were injected in accordance with either a sequential dosing paradigm or a co-dosing paradigm. In the sequential dosing paradigm, the targeted siRNA (SCE) is dosed at t=0 and the targeted peptide is separately dosed up to 2 hr before the SCE (−2 hr) or up to 24 hr after the SCE (+24 hr). In the co-dosing paradigm, the SCE and peptides are co-formulated and dosed together in the same formulation as a single injection at t=0. The mice were dosed either by intravenous (i.v.) or subcutaneous (s.c.) injection of SCE and peptide. For the i.v. doses, the compounds were injected into the tail vein of the mice. For the s.c. doses, the compounds were injected in the subcutaneous space on the back of the mouse between the shoulder blades. At the indicated harvest times (measured from t=0 when the siRNA was dosed, regardless of when the peptide was dosed), the animals were sacrificed and 3 mm liver punches were collected, preserved in RNAlater (Ambion), and stored at 4° C. Separate 5 mm liver punches were collected, placed in 96-well plates, frozen on dry ice, and stored at −80° C. until use.
The 3 mm liver punches were removed from RNAlater and homogenized in Trizol (Invitrogen) using a bead mill tissue lyser (Qiagen); disruption was performed for two 5-minute cycles at 30 Hz. RNA extraction was performed using 1-bromo-2-chloropropane (Acros Organics) and total RNA was isolated from the aqueous phase using the MagMax RNA isolation method (Ambion). […] TaqMan qPCR analysis was performed with an ABI 7900 Real-Time PCR System using TaqMan Fast Advanced Master Mix (Applied Biosystems). All TaqMan probes and primers for CTNNB1 and PPIB (housekeeping gene) were purchased from Applied Biosystems as pre-validated gene expression assays. Results are calculated by the comparative Ct method, where the difference between the CTNNB1 Ct value and the PPIB Ct value (ΔCt) is calculated and then further normalized relative to the PBS control by taking a second difference (ΔΔCt), as described previously (1).

[3] = Lethality observed in the in vivo evaluation in mice; parameters: species or system CD-1 mice; key to lethal at this dose (asterisk at targeted peptide dose): *: lethal at this dose
Description: as §1

[4] = sequential, peptide IV 15 min after siRNA IV, TGN-L-siRNA-III 0.5 mg/kg, peptide 2 mg/kg
[5] = sequential, peptide IV 15 min after siRNA IV, TGN-L-siRNA-III 0.5 mg/kg, peptide 10 mg/kg
[6] = sequential, peptide IV 15 min after siRNA IV, TGN-L-siRNA-III 0.5 mg/kg, peptide 25 mg/kg
[7] = Table 6, TGN-L-siRNA-III 0.5 mg/kg IV, peptide 25 mg/kg IV 15 min after siRNA
[8] = Table 6, TGN-L-siRNA-III 0.25 mg/kg IV, peptide 10 mg/kg IV 15 min after siRNA
[9] = sequential, peptide IV 15 min after siRNA IV, TGN-L-siRNA-III 0.25 mg/kg, peptide 10 mg/kg
[10] = sequential, peptide IV 15 min after siRNA IV, TGN-L-siRNA-III 0.25 mg/kg, peptide 50 mg/kg
[11] = sequential, peptide IV 15 min after siRNA IV, TGN-L-siRNA-III 0.25 mg/kg, peptide 2 mg/kg
[12] = sequential, peptide IV 15 min after siRNA IV, TGN-L-siRNA-III 0.25 mg/kg, peptide 5 mg/kg

siRNA-VI: CTNNB1 ds siRNA, passenger SEQ ID NO 1803, guide SEQ ID NO 1809 (sense {NH2C6-invAb}-mCmUfGmUmUfGfGfAmUmUfGfAmUmUmCfGfAfAfAmU*mU[invAb]; guide fUfUfUmCfGfAfAmUmCfAfAmUmCfCfAfAmCfAfGmU*mU)
siRNA stability (metabolic stability) [1]: more unstable

TGN-S-S-SEQ ID NO: 1248 (D) (C[dF][dL][dE][dE][dL][dW][dE][dL][dL][dE][dH][dL][dL]; not fully specified (residue 1); listed as Homo sapiens)
In vivo mRNA knockdown (%) [2, 4]: 42% | In vivo mRNA knockdown (%) [2, 5]: 74% | In vivo mRNA knockdown (%) [2, 6]: 58% | lethal at this dose (asterisk at targeted peptide dose) [3, 7]: 25*

TGN-S-S-SEQ ID NO: 1419 (D) (C[dF][dL][dE][dE][dL][dW]G[dL][dL][dE][dH][dL][dL]; not fully specified (residue 1); listed as Homo sapiens)
In vivo mRNA knockdown (%) [2, 4]: 43% | In vivo mRNA knockdown (%) [2, 5]: 78% | In vivo mRNA knockdown (%) [2, 6]: 76% | lethal at this dose (asterisk at targeted peptide dose) [3, 7]: 25*

TGN-S-S-SEQ ID NO: 1628 (D) ([dC]G[dL][dL][dA][dI]X[dE][dI][dE][dE][dL][dL][dE][dE]G[dL][dE][dN][dL][dI][dD][dW][dW][dN][dS]; not fully specified; also: TGN via disulfide; listed as Homo sapiens)
Mortality (words printed in the knockdown column) [3, 8]: All mice died | lethal at this dose (asterisk at targeted peptide dose) [3, 8]: 10*

TGN-S-S-SEQ ID NO: 1651 (D) ([dC](TGN)G[dL][dF][dE][dE][dI][dA][dE][dL][dI][dE][dE]G[dL][dE][dN][dL][dI][dD][dW]G[dN]G; reading uncertain; also: Cys disulfide-linked to TGN peptide; listed as Homo sapiens)
In vivo mRNA knockdown (%) [2, 9]: 49%

TGN-S-S-SEQ ID NO: 1740 (D): TGN-S-S-peptide, peptide GLFEAIEGFIENGWEGLAELAEALEALAAGGSC (G[dL][dF][dE][dA][dI][dE]G[dF][dI][dE][dN]G[dW][dE]G[dL][dA][dE][dL][dA][dE][dA][dL][dE][dA][dL][dA][dA]GG[dS][dC]; not fully specified; also: disulfide to TGN peptide via C-terminal Cys; listed as Homo sapiens)
In vivo mRNA knockdown (%) ([2]; sequential, peptide IV 15 min after siRNA IV, TGN-L-siRNA-II 0.25 mg/kg, peptide 1 mg/kg): 23% | In vivo mRNA knockdown (%) ([2]; sequential, peptide IV 15 min after siRNA IV, TGN-L-siRNA-II 0.25 mg/kg, peptide 3 mg/kg): 42%

TGN-S-S-SEQ ID NO: 1744 (D) ([dC][dE][dE][dN][dW][dI]G[dL][dF]GGG[dN][dI][dW][dE][dE][dE][dE][dI][dL][dD][dL][dL]; also: disulfide to TGN peptide via N-terminal Cys; listed as Homo sapiens)
In vivo mRNA knockdown (%) [2, 4]: 28% | In vivo mRNA knockdown (%) [2, 5]: 33%

TGN-S-S-SEQ ID NO: 1712 (L) (C(TGN)FLGALWKALSELLKNLIDWWNG; reading uncertain; also: Cys disulfide-linked to TGN peptide; listed as Homo sapiens)
In vivo mRNA knockdown (%) ([2]; sequential, peptide IV 15 min after siRNA IV, TGN-L-siRNA-III 0.5 mg/kg, peptide 5 mg/kg): 34%

TGN-S-S-SEQ ID NO: 1727 (D) ([dC](TGN)G[dL][dF][dA][dV][dI][dH][dH][dV][dA][dS][dV][dI]GG[dL]; reading uncertain; also: Cys disulfide-linked to TGN peptide; listed as Homo sapiens)
In vivo mRNA knockdown (%) [2, 9]: 26%

TGN-S-S-SEQ ID NO: 1632 (D) ([dC](S‑S‑TGN)G[dL][dF]G[dE][dI][dH][dH][dL][dI][dH][dH]G[dL][dH][dN][dL][dI][dD][dW][dW][dN]G; reading uncertain; also: Cys disulfide-linked to TGN peptide; listed as Homo sapiens)
In vivo mRNA knockdown (%) [2, 9]: 36%

TGN-S-S-SEQ ID NO: 1731(D): TGN-S-S-peptide, peptide CGIGAVLHVLTTGLPALISWIHHHHQQ
In vivo mRNA knockdown (%) [2, 9]: 30%

TGN-S-S-SEQ ID NO: 1653 (D) ([dC](TGN)G[dL][dF]G[dE][dI][dA][dE][dL][dI][dW][dE]G[dL][dE][dN][dL][dI][dD][dW]G[dN]G; reading uncertain; also: Cys disulfide-linked to TGN peptide; listed as Homo sapiens)
In vivo mRNA knockdown (%) [2, 9]: 63% | In vivo mRNA knockdown (%) [2, 10]: 69%

TGN-S-S-SEQ ID NO: 1726(D) ([dC](TGN)G[dL][dF][dA][dV][dI][dK][dK][dV][dA][dS][dV][dI]GG[dL]; reading uncertain; also: Cys disulfide-linked to TGN peptide; listed as Homo sapiens)
In vivo mRNA knockdown (%) [2, 9]: 23%

TGN-S-S-SEQ ID NO: 1403 (L) (C(TGN)GLLEEIEELLEEGLENLIDWWNS; reading uncertain; listed as Homo sapiens)
In vivo mRNA knockdown (%) [2, 11]: 22% | In vivo mRNA knockdown (%) [2, 9]: 24%

TGN-S-S-SEQ ID NO: 1734 (D): TGN-S-S-peptide, peptide AC-GLFEAIEGFIENGWEGLAELAEALEALAAGGSC
In vivo mRNA knockdown (%) [2, 12]: 61%

TGN-S-S-SEQ ID NO: 1516 (L) (C(TGN)GLFAEIEELLEEGLENLIDWWNG; reading uncertain; listed as Homo sapiens)
In vivo mRNA knockdown (%) [2, 12]: 14%

TGN-S-S-SEQ ID NO: 1725 (L) (C(TGN)SSAWWSYWPPVA; reading uncertain; also: Cys disulfide-linked to TGN peptide; listed as Homo sapiens)
In vivo mRNA knockdown (%) [2, 9]: 19%

siRNA-IV: CTNNB1 ds siRNA, passenger SEQ ID NO 1807 (clickA, 5Chol), guide SEQ ID NO 1806 (sense CUGUUGGAUUGAUUCGAAAUU; guide TUUCGAAUCAAUCCAACAGUU; clickA; 5' cholesterol; (1)..(1) aminohexyl phosphate inverted abasic cap; (1)..(2) 2′-O-methyl; (3)..(3) 2′-deoxy-2′-fluoro; (4)..(5) 2′-O-methyl; (6)..(8) 2′-deoxy-2′-fluoro; (9)..(10) 2′-O-methyl; (11)..(12) 2′-deoxy-2′-fluoro; (13)..(15) 2′-O-methyl; (16)..(16) 2′-deoxy-2′-fluoro; (17)..(17) 2′ propagyl; (18)..(19) 2′-deoxy-2′-fluoro; (20)..(21) 2′-O-methyl; (20)..(21) phosphorothioate internucleotide linkage; (21)..; (1)..(1) terminal vinyl phosphate; (1)..(1) 2′-methoxyethoxy; (2)..(21) ribonucleotide unmodified or modified as described for this sequence; (2)..(2) 2′-deoxy-2′-fluoro; …)
In vivo mRNA knockdown (%) ([2]; siRNA-IV 0.5 mg/kg IV, peptide dose 0): 25% | In vivo mRNA knockdown (%) ([2]; siRNA-IV 2 mg/kg IV, peptide dose 0): 25% | In vivo mRNA knockdown (%) ([2]; siRNA-IV 5 mg/kg IV, peptide dose 0): 35%

TGN-S-S-SEQ ID NO: 1654 (D) (CG[dL][dL][dE][dE][dI][dE][dE][dL][dL][dE][dE]G[dL][dE][dN][dL][dI][dD][dW]G[dN][dS]; not fully specified (residue 1); listed as Homo sapiens)
In vivo mRNA knockdown (%) [2, 11]: 51% | In vivo mRNA knockdown (%) [2, 9]: 72% | In vivo mRNA knockdown (%) [2, 10]: 65% | lethal at this dose (asterisk at targeted peptide dose) ([3]; Table 6, TGN-L-siRNA-III 0.25 mg/kg IV, peptide 50 mg/kg IV 15 min after siRNA): 50*
